Read-outs that look alike come from different tables or passages of the source. Marks after values point to notes of the source that are not given here.
What was measured:
[1] = T = 25 °C, I = 0.15 M NaCl, ref 16 (PC2A ligands), 12 (DO2A ligands), cited from earlier work; for log K1^H / log K2^H / log K3^H / Σlog Κ2^H: 20 (H21,7-O2DO2A); for Σlog Κ2^H: log K1^H + log K2^H
[2] = Ca^2+ complex, cited from earlier work
[3] = T = 25 °C, cited from earlier work; for log KMnL / log KMnHL / pMn: ref 16 (PC2A ligands), 12 (DO2A ligands); for log KMnL / pMn: 20 (H21,7-O2DO2A); for pMn: pMn = −log(Mn(II)free), cMn^2+ = cligand = 1 × 10^−5 M, pH = 7.4
[4] = Zn^2+ complex, T = 25 °C, I = 0.15 M NaCl, cited from earlier work; for log KMnLOH: DO2A values carry footnote f, ref 12 (DO2A ligands); for log KMnLOH / log KMnL: 20 (H21,7-O2DO2A); for log KMnL / log KMnHL: ref 16 (PC2A ligands), 12 (DO2A ligands)
[5] = Cu^2+ complex, T = 25 °C, I = 0.15 M NaCl, cited from earlier work; for log KMnHL / log KMnL: ref 16 (PC2A ligands), 12 (DO2A ligands), 20 (H21,7-O2DO2A)
[6] = Mn(II) complex, 25 °C, pH = 7.4, cited from earlier work
[7] = cited from earlier work; for r1^298_20 MHz: 20 MHz, 298 K; for ΔH^‡: activation enthalpy of water exchange; for q: hydration number, fixed during the fitting procedure
[8] = pH = 6.0, 25 equivalents of Zn(II), 37 °C, cited from earlier work
[9] = cited from earlier work; for t1/2 (h) at pH = 7.4: extrapolated to pH = 7.4; for t1/2 (h) at pH = 7.4 / k1: ref 16 (PC2A complexes), 12, 13, 20; for k1: proton assisted dissociation
[10] = 17O NMR and NMRD measurements (water exchange, rotation, hydration number); format: physicochemical; conditions: ratio of kex^298 values
Protocol: The relaxivity of paramagnetic metal complexes is governed by several parameters, including the water exchange rate (kex), the rotational correlation time (τR), and the number of inner sphere water molecules (q). In order to obtain information for these parameters, temperature dependent ^17O NMR measurements (9.4 T) and nuclear magnetic relaxation dispersion (NMRD) experiments were carried out in the frequency range of 0.01–80 MHz, at 3 different temperatures (25, 37, and 50 °C). Since numerous physico-chemical parameters determine the relaxivity, the independent assessment of some of the parameters is essential for the correct characterization. The variable temperature ^17O NMR measurements can deliver information about kex and τR via the transverse (1/T2) and the longitudinal (1/T1) ^17O relaxation rates, respectively, while the ^17O chemical shifts (Δω) depend on q. Therefore, the transverse and longitudinal relaxation rates and chemical shifts for a [Mn(3,9-OPC2A)] complex and a diamagnetic reference sample (HClO4, pH = 3.3) have been determined in the aqueous solution.
The ^17O 1/T2r values and the NMRD data have been analyzed simultaneously by the Swift–Connick equations [31], as well as by the Solomon–Bloembergen–Morgan (SMB) and Freed models (see Supporting Information). In this calculation, the water exchange rate, kex^298; its activation enthalpy and entropy, ΔH^‡ and ΔS^‡; the rotational correlational time, τR; its activation energy, ER; the square of the zero-field splitting energy (ZFS), Δ^2; and the correlation time of its modulation, τv, have been determined and listed in Table 5, together with corresponding values of other complexes for comparison. As a result of the high number of parameters involved in the calculations, some have to be set to reasonable estimates based on literature data. Thus, the scalar coupling constant, A/ħO, is set to 33 × 10^6 rad s^−1, the distance between the metal ion, and the inner and outer sphere water protons are fixed to rMnH = 2.83 Å and aMnH = 3.6 Å, respectively; the diffusion coefficient and its activation energy are fixed to DMnH = 23 × 10^−10 m^2s^−1 and EMnH = 18 kJmol^−1, and the activation energy of the modulation of the zero-field-splitting, Ev to 1.0 kJmol^−1.
The hydration number has been fixed to q = 1, based on the relaxivity value measured at 20 MHz (r1 = 3.09 mM^−1s^−1), and on the value, 0.97 ± 0.2, determined for q using the method proposed by Gale et al..
A Bruker Avance 400 (9.4 T) spectrometer was used to measure the longitudinal (1/T1) and transverse (1/T2) relaxation rates, and the chemical shifts of an aqueous solution of the [Mn(3,9-OPC2A)] complex (pH = 7.4, 1.3 mM) and a diamagnetic reference (HClO4 acidified water, pH = 3.3) in the temperature range of 273–348 K. The temperature calibration was performed using literature protocols relying on ethylene glycol and methanol standards. The 1/T1 and 1/T2 values were determined by the inversion−recovery and the Carr−Purcell−Meiboom−Gill spin echo technique, respectively. To avoid susceptibility corrections of the chemical shifts, a glass sphere fitted into a 10 mm NMR tube was used to contain the samples. ^17O enriched water (10% H2^17O, CortecNet) was added to the solutions to improve sensitivity (circa 1% enrichment). Proton NMRD profiles of the [Mn(3,9-OPC2A)] complex (1.00 mM, pH = 7.4) were recorded in aqueous solution on a Stelar SMARTracer Fast Field Cycling relaxometer (0.01−10 MHz), and a Bruker WP80 NMR electromagnet adapted to variable field measurements (20−80 MHz) and controlled by a SMARTracer PC-NMR console (Stelar s.r.l., Mede, Italy). The temperature was monitored by a VTC91 temperature control unit and maintained by a gas flow. The temperature was determined by previous calibration with a Pt resistance temperature probe. […]

[11] = Mg^2+ complex, cited from earlier work
[12] = T = 25 °C, I = 0.15 M NaCl, ref 16 (PC2A ligands), 12 (DO2A ligands), 20 (H21,7-O2DO2A)
[13] = 0.49 T, ref 16 (PC2A ligands), 12 (DO2A ligands), 20 (H21,7-O2DO2A)
[14] = T = 25 °C, I = 0.15 M NaCl, ref 16 (PC2A ligands), 20 (H21,7-O2DO2A)

SMILES | log K1^H [1] | log K2^H [1] | log K3^H [1] | log K4^H [1] | Σlog Κ2^H [1] | log KMnL [2, 12] | log KMnL ([3]; Mn^2+ complex, I = 0.15 M NaCl) | log KMnHL ([3]; Mn^2+ complex, I = 0.15 M NaCl) | pMn [3] | log KMnLOH [4] | log KMnL [4] | log KMnHL [4] | log KMnHL [5] | log KMnL [5] | r1p [6, 13] | log KMnL [11, 14] | other results
O=C(O)CN1CCNCCNCCN(CC(=O)O)CC1 [H21,4-DO2A] | 11.44 | 9.51 | 4.14 | 1.55 | 20.95 | 8.62 | 15.68 | 4.15 | 7.27 | 1.65 ^f | 18.03 | 3.58 | 2.95 | 24.43 ^g | 2.10 mM⁻¹ s⁻¹ | – | –
O=C([O-])CN1CCNCCN(CC(=O)[O-])Cc2cccc(n2)C1.[Mn+2] [[Mn(3,9-PC2A)]] | – | – | – | – | – | – | – | – | 8.64 | – | – | – | – | – | – | – | r1^298_20 MHz [7]: 2.91 mM⁻¹ s⁻¹; ΔH^‡ [7]: 37.5 kJmol^−1; q [7]: 1; kex^298 ([7]; water exchange rate with bulk solvent): 1.26e+08 s⁻¹; kex^298 ([7]; water exchange rate): 12.6 10^7s^−1; kobs ([8]; previously reported): (3.28 ± 0.03) × 10^−4 s^−1; t1/2 (h) at pH = 7.4 [9]: 21.0 h; k3 ([9]; metal assisted dissociation, T = 25 °C, I = 0.15 M NaCl): 0.036 M⁻¹ s⁻¹; k1 ([9]; T = 25 °C, I = 0.15 M NaCl): 221 M⁻¹ s⁻¹; KMnL x H ([9]; protonation constant of the complex from kinetic fit, T = 25 °C, I = 0.15 M NaCl): 3.6 × 10^3; KML x Cu ([9]; stability constant of dinuclear intermediate, T = 25 °C, I = 0.15 M NaCl, unit assumed): 26 M⁻¹
O=C([O-])CN(CC(=O)[O-])C1CCCCC1N(CC(=O)[O-])Cc1ccccn1.[Mn+2] (stereo not shown) [[Mn(PyC3A)]] | – | – | – | – | – | – | – | – | – | – | – | – | – | – | – | – | kobs [8]: (6.76 ± 0.04) × 10^−4 s^−1
O=C([O-])CN1CCNCCNCCN(CC(=O)[O-])CC1.[Mn+2] [[Mn(1,4-DO2A)]] | – | – | – | – | – | – | – | – | – | – | – | – | – | – | – | – | water exchange faster than on [Mn(3,9-OPC2A)] [10]: 20 times; r1^298_20 MHz [7]: 2.1 mM⁻¹ s⁻¹; ER ([7]; activation energy of rotation): 19.1 kJmol^−1; ΔH^‡ [7]: 29.4 kJmol^−1; τv^298 ([7]; correlation time of ZFS modulation): 4.4 ps; q [7]: 0.87; τR^298 ([7]; rotational correlation time): 46 ps; Δ^2 ([7]; square of the zero-field splitting energy): 481 10^18s^−2; kex^298 ([7]; water exchange rate): 113 10^7s^−1; k2 ([9]; T = 25 °C, I = 0.15 M NaCl, ref 16 ([Mn(3,6-PC2A)]), 12 ([Mn(1,4-DO2A)]), 20 ([Mn(1,7-O2DO2A)])): 1.4 × 10^6 M^−2s^−1; t1/2 (h) at pH = 7.4 [9]: 48 h; k1 ([9]; T = 25 °C, I = 0.15 M NaCl): 99 M⁻¹ s⁻¹
O=C(O)CN1CCOCCN(CC(=O)O)CCOCC1 [H21,7-O2DO2A] | 8.05 | 7.43 | 2.06 | – | 15.48 | 6.96 | 9.38 | – | 6.67 | 11.40 | 10.55 | – | 2.46 | 14.56 | 2.86 mM⁻¹ s⁻¹ | 3.91 | log KMnLOH ([3]; Mn^2+ complex, I = 0.15 M NaCl): 12.38; log KMnLOH [5]: 11.95
O=C(O)CN1CCNCc2cccc(n2)CN(CC(=O)O)CC1 [H23,6-PC2A] | 10.72 | 8.37 | 3.81 | 1.26 | 19.09 | 9.57 | 15.53 | 3.06 | 8.09 | – | 20.37 | 2.36 | 2.37 ^g | 24.09 ^g | 2.72 mM⁻¹ s⁻¹ | 8.11 | log KMnHL ([11]; T = 25 °C, I = 0.15 M NaCl): 5.87; log KMnHL ([2]; T = 25 °C, I = 0.15 M NaCl): 5.27; r2p ([6]; 0.49 T): 3.49 mM⁻¹ s⁻¹; r1p ([6]; 1.41 T): 2.40 mM⁻¹ s⁻¹; r2p ([6]; 1.41 T): 4.20 mM⁻¹ s⁻¹
O=C(O)CN1CCNCCN(CC(=O)O)Cc2cccc(n2)C1 [H23,9-PC2A, pyclen-3,9-diacetate] | 12.25 | 5.97 | 3.47 | 1.99 | 18.22 | 9.92 | 17.09 | 2.14 | 8.64 | – | 19.49 | 2.74 | 2.12 ^g | 23.58 ^g | 2.91 mM⁻¹ s⁻¹ | 9.84 | log KMnHL ([11]; T = 25 °C, I = 0.15 M NaCl): 5.91; log KMnL ([11]; value in parenthesis): 8.4; log KMnHL ([2]; T = 25 °C, I = 0.15 M NaCl): 5.08; log KMnL ([2]; value in parenthesis): 10.0; r2p ([6]; 0.49 T): 3.96 mM⁻¹ s⁻¹; r1p ([6]; 1.41 T): 2.24 mM⁻¹ s⁻¹; r2p ([6]; 1.41 T): 4.82 mM⁻¹ s⁻¹
O=C(O)CN1CCNCCN(CC(=O)O)CCNCC1 [H21,7-DO2A] | 11.69 | 9.75 | 3.97 | 2.68 | 21.44 | 8.86 | 14.64 | 4.40 | 6.52 | 1.78 ^f | 18.86 | 4.23 | 3.06 | 24.24 | 1.50 mM⁻¹ s⁻¹ | – | –

— article PMC8778187, “A New Oxygen Containing Pyclen-Type Ligand as a Manganese(II) Binder for MRI and ^52Mn PET Applications: Equilibrium, Kinetic, Relaxometric, Structural and Radiochemical Studies” (Molecules, 2022)
